# US12661410B2, “Compounds for targeted degradation of RET” (C4 Therapeutics, Inc., priority 2020, dated 2026)
# Residue numbers refer to the chain shown, from its start.
# What was measured:
# [1] = target: T1, RET (658-1114) (Homo sapiens, UniProt P07949); experiment: HiBiT-Degradation, RET wild-type degradation assay (Nano-Glo HiBiT Lytic), 293T.144 cells; type: cell-based; details: for Emax / DC50: 6.0 hours; for Emax: % remaining protein, read-out: 293T.144 RET (658-1114) 6.0 hours (Emax); for DC50: half-maximal degradation concentration, read-out: 293T.144 RET (658-1114) 6.0 hours (DC50)
# T1 construct: 658-1114; expressed in transfected cells; host or cells: 293T.144 (293T cells, generated in-house)
# T1 sequence (P07949 658-1114): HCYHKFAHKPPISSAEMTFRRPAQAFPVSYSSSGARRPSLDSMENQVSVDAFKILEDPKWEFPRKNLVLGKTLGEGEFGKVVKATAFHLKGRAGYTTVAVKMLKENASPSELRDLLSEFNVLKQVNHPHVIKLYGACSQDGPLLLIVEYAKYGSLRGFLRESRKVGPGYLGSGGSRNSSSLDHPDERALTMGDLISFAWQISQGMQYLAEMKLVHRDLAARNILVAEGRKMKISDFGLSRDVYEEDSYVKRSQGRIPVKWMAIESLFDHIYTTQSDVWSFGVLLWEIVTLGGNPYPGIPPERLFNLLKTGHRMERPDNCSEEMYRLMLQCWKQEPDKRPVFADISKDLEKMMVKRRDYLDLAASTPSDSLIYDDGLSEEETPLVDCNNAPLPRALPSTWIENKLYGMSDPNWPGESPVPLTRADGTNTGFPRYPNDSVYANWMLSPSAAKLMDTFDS
# From the text: (§1) Dulbecco's modified Eagle medium (DMEM) no-phenol red media and fetal bovine serum (FBS) were purchased from Gibco (Grand Island, NY, USA). Cell lines ectopically expressing wild-type or G810R RET kinase domain fused with a HiBiT tag were generated in-house (293T. 144 and 293T. 165, respectively). Cell culture flasks and 384-well microplates were acquired from VWR (Radnor, PA, USA). The Nano-Glo® HiBiT Lytic Assay System was purchased from Promega (Madison, WI, USA).
# (§2) RET wild-type (WT) and G810R degradation were assessed using the Nano-Glo® HiBiT Lytic assay (Promega, Medison, WI, USA). To determine the effect of degraders on protein levels, cells were plated in 384-well plates and treated with compounds of interest in duplicates for 6 hours using an 11-point half-log dilution series, with the highest dose set at 10 μM. Cell lysis and addition of the Nano-Glo® HiBiT Lytic Assay reagents was then performed. Luminescence signal was measured using an EnVision™ Multimode plate reader (Perkin Elmer, Santa Clara, CA, USA). The half-maximal degradation concentration (DC50) and % remaining protein (Emax) was then derived from the dose-response curves.
# [2] = target: T2, RET(KD: 658-1114 G810R) (Homo sapiens, UniProt P07949, G810R); experiment: HiBiT-Degradation, RET G810R degradation assay (Nano-Glo HiBiT Lytic), 293T.165 cells; type: cell-based; details: for Emax / DC50: 6.0 hours; for Emax: % remaining protein, read-out: 293T.165 RET(KD: 658-1114 G810R) 6.0 hours (Emax); for DC50: half-maximal degradation concentration, read-out: 293T.165 RET(KD: 658-1114 G810R) 6.0 hours (DC50)
# T2 construct: 658-1114; expressed in transfected cells; host or cells: 293T.165 (293T cells, generated in-house)
# T2 sequence (P07949 658-1114 G810R): T1 sequence (P07949 658-1114) with G153R
# From the text: as §1, §2
SMILES,293T.144 RET (658-1114) 6.0 hours (IP) [nM] [1],Emax [1] [%],DC50 [1] [nM],293T.165 RET(KD: 658-1114 G810R) 6.0 hours (IP) [nM] [2],Emax [2] [%],DC50 [2] [nM]
"N#Cc1cnn2cc(-c3cnn([C@H]4CC[C@H](N5CCC(c6ccc(N[C@@H]7CCC(=O)NC7=O)cc6F)CC5)CC4)c3)nc(-c3ccc(N4CCC5(CC4)OCc4cccnc45)nc3)c12 (relative stereo) [Compound 149, 6-[1-[4-[4-[2-fluoro-4-[[rac-(3R)-2,6-dioxo-3-piperidyl]amino]phenyl]-1-piperidyl]cyclohexyl]pyrazol-4-yl]-4-(6-spiro[5H-furo[3,4-b]pyridine-7,4′-piperidine]-1′-yl-3-pyridyl)pyrazolo[1,5-a]pyrazine-3-carbonitrile]",++++ (<50 nM = ++++),< 30,< 50,++++ (<50 nM = ++++),< 30,< 50
"N#Cc1cnn2cc(-c3cnn([C@H]4CC[C@H](N5CCN(c6cc(F)c(NC7CCC(=O)NC7=O)cc6F)CC5)CC4)c3)nc(-c3ccc(N4CC5COCC(C4)N5Cc4ccccn4)nc3)c12 (relative stereo) [Compound 161, 6-[1-[4-[4-[4-[(2,6-dioxo-3-piperidyl)amino]-2,5-difluoro-phenyl]piperazin-1-yl]cyclohexyl]pyrazol-4-yl]-4-[6-[9-(2-pyridylmethyl)-3-oxa-7,9-diazabicyclo[3.3.1]nonan-7-yl]-3-pyridyl]pyrazolo[1,5-a]pyrazine-3-carbonitrile]",++++ (<50 nM = ++++),< 30,< 50,++++ (<50 nM = ++++),< 30,< 50
"COc1ccc(CN2C3COCC2CN(c2ccc(-c4nc(-c5cnn([C@H]6CC[C@H](N7CCN(c8cc(F)c(NC9CCC(=O)NC9=O)cc8F)CC7)CC6)c5)cn5ncc(C#N)c45)cn2)C3)cn1 (relative stereo) [Compound 162, 6-[1-[4-[4-[4-[(2,6-dioxo-3-piperidyl)amino]-2,5-difluoro-phenyl]piperazin-1-yl]cyclohexyl]pyrazol-4-yl]-4-[6-[9-[(6-methoxy-3-pyridyl)methyl]-3-oxa-7,9-diazabicyclo[3.3.1]nonan-7-yl]-3-pyridyl]pyrazolo[1,5-a]pyrazine-3-carbonitrile]",++++ (<50 nM = ++++),< 30,< 50,++++ (<50 nM = ++++),< 30,< 100
"COc1cc(N2CCN([C@H]3CC[C@H](n4cc(-c5cn6ncc(C#N)c6c(-c6ccc(N7CC8COCC(C7)N8C(=O)OC(C)(C)C)nc6)n5)cn4)CC3)CC2)c(F)cc1NC1CCC(=O)NC1=O (relative stereo) [Compound 163, tert-butyl 7-[5-[3-cyano-6-[1-[4-[4-[4-[(2,6-dioxo-3-piperidyl)amino]-2-fluoro-5-methoxy-phenyl]piperazin-1-yl]cyclohexyl]pyrazol-4-yl]pyrazolo[1,5-a]pyrazin-4-yl]-2-pyridyl]-3-oxa-7,9-diazabicyclo[3.3.1]nonane-9-carboxylate]",++++ (<50 nM = ++++),< 30,< 50,++++ (<50 nM = ++++),< 30,< 100
"COc1cc(N2CCN([C@H]3CC[C@H](n4cc(-c5cn6ncc(C#N)c6c(-c6ccc(N7C[C@H]8COC[C@@H](C7)N8Cc7ccc(F)cc7)nc6)n5)cn4)CC3)CC2)c(F)cc1NC1CCC(=O)NC1=O (relative stereo) [Compound 164, 6-[1-[4-[4-[4-[(2,6-dioxo-3-piperidyl)amino]-2-fluoro-5-methoxy-phenyl]piperazin-1-yl]cyclohexyl]pyrazol-4-yl]-4-[6-[(1R,5S)-9-[(4-fluorophenyl)methyl]-3-oxa-7,9-diazabicyclo[3.3.1]nonan-7-yl]-3-pyridyl]pyrazolo[1,5-a]pyrazine-3-carbonitrile]",++++ (<50 nM = ++++),< 30,< 50,+++ (<100 nM = +++),< 30,< 100
